# Test results as given in ChEMBL document CHEMBL1201862, “PubChem BioAssay data set” (2004).
#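 In this assay, cells in 96-well plates receive the compound at five concentrations for 48 hours. Endpoints are linearly interpolated between the surrounding concentrations. Here, GI50 denotes the concentration required for 50% inhibition of growth.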 The source made the active and inactive calls. Cut-off read from the data, not from the text of the source: active = GI50 up to about 1.1 µM and inactive = higher.
# Columns and labels:
# Assay in all cases: NCI-60 cell line screen, 48 h
# ACHN = system: ACHN
# 786-0 = system: 786-0
# HOP-62 = system: HOP-62
# SR = system: SR
# SF-268 = system: SF-268
# OVCAR-5 = system: OVCAR-5
# SK-MEL-2 = system: SK-MEL-2
# MDA-MB-435 = system: MDA-MB-435
# EKVX = system: EKVX
# Hs-578T = system: Hs-578T
# IGROV-1 = system: IGROV-1
# RPMI-8226 = system: RPMI-8226
# COLO 205 = system: COLO 205
# PC-3 = system: PC-3
# A549 = system: A549
# UACC-257 = system: UACC-257
# OVCAR-4 = system: OVCAR-4
# SK-MEL-28 = system: SK-MEL-28
# RXF 393 = system: RXF 393
# SK-OV-3 = system: SK-OV-3
# NCI-H23 = system: NCI-H23
# SN12C = system: SN12C
# MDA-MB-231 = system: MDA-MB-231
# NCI/ADR-RES = system: NCI/ADR-RES
# SW-620 = system: SW-620
# KM12 = system: KM12
# U-251 = system: U-251
# MCF7 = system: MCF7
# UO-31 = system: UO-31
# HOP-92 = system: HOP-92
# CAKI-1 = system: CAKI-1
# HT-29 = system: HT-29
# MOLT-4 = system: MOLT-4
# TK-10 = system: TK-10
# HL-60 = system: HL-60
# K562 = system: K562
# OVCAR-8 = system: OVCAR-8
# SK-MEL-5 = system: SK-MEL-5
# UACC-62 = system: UACC-62
# OVCAR-3 = system: OVCAR-3
# NCI-H226 = system: NCI-H226
# HCT-15 = system: HCT-15
# NCI-H522 = system: NCI-H522
# SF-295 = system: SF-295
# SNB-19 = system: SNB-19
# NCI-H460 = system: NCI-H460
# SNB-75 = system: SNB-75
# DU-145 = system: DU-145
# SF-539 = system: SF-539
# A498 = system: A498
# T47D = system: T47D
# HCT-116 = system: HCT-116
# M14 = system: M14
# Malme-3M = system: Malme-3M
# CCRF-CEM = system: CCRF-CEM
# HCC 2998 = system: HCC 2998
# LOX IMVI = system: LOX IMVI
# MDA-N = system: MDA-N
structure (smiles),measurement,setting,value
COc1ccc(C(=O)/C=C/S/C(=N/C#N)SC)cc1,GI50,ACHN,20.4 µM (inactive)
same,GI50,786-0,19 µM (inactive)
same,GI50,HOP-62,24.3 µM (inactive)
same,GI50,SR,3.95 µM (inactive)
same,GI50,SF-268,25.8 µM (inactive)
same,GI50,OVCAR-5,24 µM (inactive)
same,GI50,SK-MEL-2,20.5 µM (inactive)
same,GI50,MDA-MB-435,21.5 µM (inactive)
same,GI50,EKVX,35.3 µM (inactive)
same,GI50,Hs-578T,30.9 µM (inactive)
same,GI50,IGROV-1,21.8 µM (inactive)
same,GI50,RPMI-8226,4.33 µM (inactive)
same,GI50,COLO 205,19.7 µM (inactive)
same,GI50,PC-3,33.8 µM (inactive)
same,GI50,A549,> 100 µM (inactive)
same,GI50,UACC-257,20.4 µM (inactive)
same,GI50,OVCAR-4,58.9 µM (inactive)
same,GI50,SK-MEL-28,30.2 µM (inactive)
same,GI50,RXF 393,18.2 µM (inactive)
same,GI50,SK-OV-3,26.2 µM (inactive)
same,GI50,NCI-H23,16.9 µM (inactive)
same,GI50,SN12C,24.4 µM (inactive)
same,GI50,MDA-MB-231,13.7 µM (inactive)
same,GI50,NCI/ADR-RES,21.3 µM (inactive)
same,GI50,SW-620,16.8 µM (inactive)
same,GI50,KM12,25.9 µM (inactive)
same,GI50,U-251,16.9 µM (inactive)
same,GI50,MCF7,18.4 µM (inactive)
same,GI50,UO-31,17.9 µM (inactive)
same,GI50,HOP-92,65.5 µM (inactive)
same,GI50,CAKI-1,22.9 µM (inactive)
same,GI50,HT-29,19.8 µM (inactive)
same,GI50,MOLT-4,5.77 µM (inactive)
same,GI50,TK-10,20.8 µM (inactive)
same,GI50,HL-60,16.6 µM (inactive)
same,GI50,K562,10.7 µM (inactive)
same,GI50,OVCAR-8,21 µM (inactive)
same,GI50,SK-MEL-5,21.8 µM (inactive)
same,GI50,UACC-62,20 µM (inactive)
same,GI50,OVCAR-3,16.4 µM (inactive)
same,GI50,NCI-H226,16.5 µM (inactive)
same,GI50,HCT-15,13.8 µM
same,GI50,NCI-H522,18.2 µM (inactive)
same,GI50,SF-295,28 µM (inactive)
same,GI50,SNB-19,19.5 µM (inactive)
same,GI50,NCI-H460,> 100 µM (inactive)
same,GI50,SNB-75,27.9 µM (inactive)
same,GI50,DU-145,21.7 µM (inactive)
same,GI50,SF-539,20 µM (inactive)
same,GI50,A498,24.5 µM (inactive)
same,GI50,T47D,20.7 µM (inactive)
same,GI50,HCT-116,14.9 µM (inactive)
same,GI50,M14,18.3 µM (inactive)
same,GI50,Malme-3M,24.5 µM (inactive)
COc1cc(CC2CC(c3ccc4c(c3)OCO4)OC2=O)cc(OC)c1OC (centres undefined),GI50,ACHN,> 100 µM (inactive)
same,GI50,CCRF-CEM,> 100 µM (inactive)
same,GI50,786-0,> 100 µM (inactive)
same,GI50,HOP-62,> 100 µM (inactive)
same,GI50,SR,> 100 µM (inactive)
same,GI50,SF-268,> 100 µM (inactive)
same,GI50,OVCAR-5,> 100 µM (inactive)
same,GI50,MDA-MB-435,> 100 µM (inactive)
same,GI50,EKVX,65.9 µM (inactive)
same,GI50,Hs-578T,> 100 µM (inactive)
same,GI50,RPMI-8226,25.1 µM (inactive)
same,GI50,COLO 205,> 100 µM (inactive)
same,GI50,PC-3,91.6 µM (inactive)
same,GI50,A549,> 100 µM (inactive)
same,GI50,UACC-257,77.4 µM (inactive)
same,GI50,HCC 2998,> 100 µM (inactive)
same,GI50,SK-MEL-28,> 100 µM (inactive)
same,GI50,RXF 393,> 100 µM (inactive)
same,GI50,SK-OV-3,> 100 µM (inactive)
same,GI50,NCI-H23,> 100 µM (inactive)
same,GI50,SN12C,> 100 µM (inactive)
same,GI50,MDA-MB-231,52.1 µM (inactive)
same,GI50,NCI/ADR-RES,83.2 µM (inactive)
same,GI50,SW-620,> 100 µM (inactive)
same,GI50,KM12,> 100 µM (inactive)
same,GI50,U-251,> 100 µM (inactive)
same,GI50,MCF7,> 100 µM (inactive)
same,GI50,UO-31,19.4 µM (inactive)
same,GI50,HOP-92,13.6 µM (inactive)
same,GI50,CAKI-1,59.2 µM (inactive)
same,GI50,HT-29,> 100 µM (inactive)
same,GI50,MOLT-4,83 µM (inactive)
same,GI50,TK-10,> 100 µM (inactive)
same,GI50,HL-60,> 100 µM (inactive)
same,GI50,K562,71.8 µM (inactive)
same,GI50,OVCAR-8,> 100 µM (inactive)
same,GI50,SK-MEL-5,43.9 µM (inactive)
same,GI50,UACC-62,52.5 µM (inactive)
same,GI50,OVCAR-3,49.5 µM (inactive)
same,GI50,NCI-H226,> 100 µM (inactive)
same,GI50,HCT-15,> 100 µM
same,GI50,SF-295,> 100 µM (inactive)
same,GI50,SNB-19,> 100 µM (inactive)
same,GI50,NCI-H460,> 100 µM (inactive)
same,GI50,SNB-75,> 100 µM (inactive)
same,GI50,LOX IMVI,> 100 µM (inactive)
same,GI50,DU-145,> 100 µM (inactive)
same,GI50,SF-539,> 100 µM (inactive)
same,GI50,A498,> 100 µM (inactive)
same,GI50,T47D,39 µM (inactive)
same,GI50,HCT-116,> 100 µM (inactive)
same,GI50,M14,> 100 µM (inactive)
same,GI50,Malme-3M,61.1 µM (inactive)
COC(=O)C(=CNC(N)=O)C(=O)OC,GI50,ACHN,> 100 µM (inactive)
same,GI50,CCRF-CEM,> 100 µM (inactive)
same,GI50,786-0,> 100 µM (inactive)
same,GI50,HOP-62,> 100 µM (inactive)
same,GI50,SR,> 100 µM (inactive)
same,GI50,SF-268,> 100 µM (inactive)
same,GI50,OVCAR-5,> 100 µM (inactive)
same,GI50,SK-MEL-2,> 100 µM (inactive)
same,GI50,MDA-N,> 100 µM (inactive)
same,GI50,MDA-MB-435,> 100 µM (inactive)
same,GI50,EKVX,> 100 µM (inactive)
same,GI50,Hs-578T,63.4 µM (inactive)
same,GI50,IGROV-1,> 100 µM (inactive)
same,GI50,RPMI-8226,> 100 µM (inactive)
same,GI50,COLO 205,> 100 µM (inactive)
same,GI50,PC-3,> 100 µM (inactive)
same,GI50,A549,> 100 µM (inactive)
same,GI50,UACC-257,> 100 µM (inactive)
same,GI50,SK-MEL-28,> 100 µM (inactive)
same,GI50,NCI-H23,> 100 µM (inactive)
same,GI50,SN12C,> 100 µM (inactive)
same,GI50,NCI/ADR-RES,> 100 µM (inactive)
same,GI50,SW-620,> 100 µM (inactive)
same,GI50,KM12,> 100 µM (inactive)
same,GI50,MCF7,> 100 µM (inactive)
same,GI50,UO-31,> 100 µM (inactive)
same,GI50,HOP-92,> 100 µM (inactive)
same,GI50,CAKI-1,> 100 µM (inactive)
same,GI50,HT-29,> 100 µM (inactive)
same,GI50,MOLT-4,> 100 µM (inactive)
same,GI50,TK-10,> 100 µM (inactive)
same,GI50,K562,> 100 µM (inactive)
same,GI50,OVCAR-8,> 100 µM (inactive)
same,GI50,SK-MEL-5,> 100 µM (inactive)
same,GI50,UACC-62,> 100 µM (inactive)
same,GI50,OVCAR-3,> 100 µM (inactive)
same,GI50,HCT-15,> 100 µM
same,GI50,NCI-H522,> 100 µM (inactive)
same,GI50,SF-295,> 100 µM (inactive)
same,GI50,SNB-19,> 100 µM (inactive)
same,GI50,NCI-H460,> 100 µM (inactive)
same,GI50,LOX IMVI,> 100 µM (inactive)
same,GI50,DU-145,> 100 µM (inactive)
same,GI50,SF-539,> 100 µM (inactive)
same,GI50,T47D,> 100 µM (inactive)
same,GI50,HCT-116,> 100 µM (inactive)
same,GI50,M14,> 100 µM (inactive)
